# Results reported in ChEMBL document CHEMBL1201862, “PubChem BioAssay data set” (2004).
#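 Protocol summary: plate cells (96-well), add compound at 5 concentrations, incubate 48 h, interpolate endpoints linearly. GI50 = concentration required for 50% inhibition of growth.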 The source made the active and inactive calls. No stated cut-off is given here; in the data, active = GI50 up to about 1.1 µM and inactive = higher.
# Tests used:
# Assay in all cases: NCI anticancer screen, dose series, 48 h
# [1] = system: SK-OV-3
# [2] = system: NCI-H226
# [3] = system: CCRF-CEM
# [4] = system: HOP-92
# [5] = system: NCI-H23
# [6] = system: SF-295
# [7] = system: K562
# [8] = system: MDA-N
# [9] = system: OVCAR-8
# [10] = system: DU-145
# [11] = system: UACC-257
# [12] = system: U-251
# [13] = system: SN12C
# [14] = system: HCT-15
# [15] = system: HCC 2998
# [16] = system: OVCAR-3
# [17] = system: KM12
# [18] = system: LOX IMVI
# [19] = system: SF-268
# [20] = system: M14
Compound,GI50 [1],GI50 [2],GI50 [3],GI50 [4],GI50 [5],GI50 [6],GI50 [7],GI50 [8],GI50 [9],GI50 [10],GI50 [11],GI50 [12],GI50 [13],GI50 [14] [µM],GI50 [15],GI50 [16],GI50 [17],GI50 [18],GI50 [19],GI50 [20]
Cc1ccc(C2=Nn3c(nc4sc5c(c4c3=O)CCCC5)SC2)cc1,> 100 µM (inactive),> 100 µM (inactive),> 100 µM (inactive),> 100 µM (inactive),> 100 µM (inactive),> 100 µM (inactive),> 100 µM (inactive),> 100 µM (inactive),> 100 µM (inactive),> 100 µM (inactive),> 100 µM (inactive),> 100 µM (inactive),> 100 µM (inactive),> 100,> 100 µM (inactive),> 100 µM (inactive),> 100 µM (inactive),> 100 µM (inactive),> 100 µM (inactive),
S=c1nc(Nc2ccc(Cl)cc2)c2c3c(sc2[nH]1)CCCC3,> 100 µM (inactive),> 100 µM (inactive),36.2 µM (inactive),76 µM (inactive),45.1 µM (inactive),> 100 µM (inactive),38.5 µM (inactive),> 100 µM (inactive),,> 100 µM (inactive),> 100 µM (inactive),> 100 µM (inactive),> 100 µM (inactive),> 100,43.4 µM (inactive),> 100 µM (inactive),> 100 µM (inactive),> 100 µM (inactive),> 100 µM (inactive),
Cc1c(C)c2c(c(N)c1C#N)C(=O)N(N)C2=O,> 100 µM (inactive),78.7 µM (inactive),> 100 µM (inactive),> 100 µM (inactive),> 100 µM (inactive),> 100 µM (inactive),> 100 µM (inactive),> 100 µM (inactive),> 100 µM (inactive),> 100 µM (inactive),> 100 µM (inactive),> 100 µM (inactive),> 100 µM (inactive),> 100,> 100 µM (inactive),> 100 µM (inactive),> 100 µM (inactive),,> 100 µM (inactive),> 100 µM (inactive)
Cc1nc2ccccc2c(=O)n1NC(=O)c1ccc(N)cc1,> 100 µM (inactive),> 100 µM (inactive),> 100 µM (inactive),> 100 µM (inactive),> 100 µM (inactive),> 100 µM (inactive),> 100 µM (inactive),> 100 µM (inactive),> 100 µM (inactive),> 100 µM (inactive),> 100 µM (inactive),> 100 µM (inactive),> 100 µM (inactive),,> 100 µM (inactive),> 100 µM (inactive),> 100 µM (inactive),> 100 µM (inactive),> 100 µM (inactive),> 100 µM (inactive)
Cc1c2n(c3ccccc13)S(=O)(=O)c1ccccc1-2,14.6 µM (inactive),77.3 µM (inactive),> 100 µM (inactive),30.2 µM (inactive),23.2 µM (inactive),17.3 µM (inactive),> 100 µM (inactive),34.9 µM (inactive),21.2 µM (inactive),47.2 µM (inactive),> 100 µM (inactive),18.4 µM (inactive),,48.1,> 100 µM (inactive),45.9 µM (inactive),> 100 µM (inactive),44.6 µM (inactive),,27.4 µM (inactive)
[O-][N+]1=C(c2ccccc2)/C(=C2/C(c3ccccc3)=[N+]([O-])c3ccccc32)Cc2ccccc21,26.4 µM (inactive),22.5 µM (inactive),13.1 µM (inactive),15.2 µM (inactive),15.5 µM (inactive),15.3 µM (inactive),19.1 µM (inactive),17.1 µM (inactive),16.6 µM (inactive),22 µM (inactive),18.3 µM (inactive),14.5 µM (inactive),16.6 µM (inactive),16.9,13.9 µM (inactive),16.8 µM (inactive),18.7 µM (inactive),16.7 µM (inactive),,19.6 µM (inactive)
Cc1ccc(NC2=CC(=O)C(NO)c3ccccc32)cc1 (stereo not given),10.8 µM (inactive),19.9 µM (inactive),,2.7 µM (inactive),1.64 µM (inactive),3.98 µM (inactive),,2.61 µM (inactive),1.63 µM (inactive),2.56 µM (inactive),1.73 µM (inactive),3.15 µM (inactive),3.36 µM (inactive),2.79,7.26 µM (inactive),0.61 µM (active),3.32 µM (inactive),2.93 µM (inactive),3.32 µM (inactive),2.94 µM (inactive)
